Read-outs that look alike come from different tables or passages of the source. One block for each compound: values may come before it.
Key:
NIH3T3-EGFRinsSVD cells = test: Antitumor effect, nude mice subcutaneously transplanted with NIH3T3-EGFRinsSVD cells; assay type: in vivo, mouse; conditions: 20 mg/kg orally once daily, 14 days
Method: (§1) Nude mice were subcutaneously transplanted with NIH3T3-EGFRinsASV cells, NIH3T3-EGFRinsSVD cells, or H1975-EGFRinsSVD cells to which human mutant EGFR was introduced. At the point at which the tumor volume of the tumor engrafted in the nude mice grew to about 100 to 200 mm^3, the mice were allocated into groups, 5 to 6 mice for each group, by stratified randomization such that the average tumor volume between the groups was uniform.
(§2) The maximum tolerated dose was determined in accordance with the “Guidelines Involving Experimental Neoplasia Proposals in Mice and Rats” of the National Cancer Institute (NCI), from a humanitarian perspective.
(§3) To compare the changes in growth of tumor over time due to administration of the individual test compounds, a relative tumor volume (which hereinafter also referred to as “RTV”) was calculated based on the tumor volume at the time the mice were divided into groups (which is taken as 1 for the tumor growth ratio), using the following formula. For a toxicity index, the body weight was measured over time, and the average body weight change (which hereinafter also referred to as “BWC (%)”) from the day on which the mice were divided into groups was calculated in accordance with the following formula.
(§4) RTV=(the tumor volume on the day a tumor volume was measured)/(the tumor volume on the day mice were divided into groups) […]

[1] = Time of maximum blood concentration after oral administration in nude mice; assay type: in vivo, mouse; conditions: single oral administration, around
[2] = system: H1975-EGFRinsSVD-Luc cells; test: Life-extending effect, nude mice transplanted with H1975-EGFRinsSVD-Luc cells in the lung; conditions: H1975 EGFR insSVD in lung, 20 mg/kg orally once daily
Method: H1975-EGFRinsSVD-Luc strain was established by introducing a luciferase into H1975-EGFRinsSVD, which is a human mutant EGFR-introduced cell line. A pJTI (trademark) Fast DEST vector, which was prepared by encoding a Luciferase into NCI-H1975-EGFRinsSVD cells, was introduced into […], together with a pJTI (trademark) PhiC31 integrase expression vector, by electroporation using an Amaxa (trademark) Cell Line Nucleofector (trademark) Kit R, followed by selection using hygromycin B (Nacalai Tesque Inc.).
In evaluation of the life-extending effect, an equivalent amount of Matrigel was added to a suspension of cultured H1975-EGFRinsSVD-Luc cells to prepare a cell suspension, and the cell suspension was transplanted into the right lung of nude mice. On day 6 after transplantation, all of the living mice were administered a luciferin through the tail vein, and allocated into groups, 9 mice for each group, by stratified randomization such that the average luminescence intensity between the groups was uniform. […] The maximum tolerated dose was determined in accordance with the “Guidelines Involving Experimental Neoplasia Proposals in Mice and Rats” of the National Cancer Institute (NCI), from a humanitarian perspective.
To evaluate the life-extending effect, the survival period after transplantation was observed, and the survival time of each mouse was determined. From the survival time, the median survival time (which hereinafter also referred to as “MST”) of each group was calculated, and the survival period-extending effect (i.e., an increase in lifespan, which hereinafter also referred to as “I.L.S. (%)”) was calculated based on MST of the control group and the group administered with a test compound, using the following formula. For a toxicity index, the body weight was measured over time, and the body weight change (which hereinafter also referred to as “BWC (%)”) from the day on which the mice were divided into groups was calculated in accordance with the following formula.
T: MST of the group administered with a test compound
C: MST of the control group
(§5) BWC (%)=(the body weight measured on body weight measurement day)/(the body weight on the day mice were divided into groups)

NIH3T3-EGFRinsNPH cells = test: Antitumor effect, nude mice subcutaneously transplanted with NIH3T3-EGFRinsNPH cells; conditions: NIH3T3 EGFRinsNPH, 20 mg/kg orally once daily, 10 days
Method: as §1, with “with NIH3T3-EGFRinsNPH” for “with NIH3T3-EGFRinsASV cells, NIH3T3-EGFRinsSVD cells, or H1975-EGFRinsSVD”, “cells into” for “cells to”, “groups,” for “groups, 5 to”
as §2
To compare the changes in growth of tumor over time due to administration of the individual test compounds, the tumor volume (which hereinafter also referred to as “TV”) of each mouse was calculated using the following formula. For a toxicity index, the body weight was measured over time, and the body weight change (which hereinafter also referred to as “BWC (%)”) from the day on which the mice were divided into groups was calculated in accordance with the following formula. FIGS. 9 and 10 illustrate changes in the average TV and the average BWC of the mice.
TV (mm^3)=(the major axis x the short axis^2)/2
as §5
The T/C (%) on the final evaluation day was calculated in accordance with the following formula.
T/C (%)=(the tumor volume of the group administered with a test compound)/(the tumor volume of the control group)

NIH3T3-EGFRinsASV cells = test: Antitumor effect, nude mice subcutaneously transplanted with NIH3T3-EGFRinsASV cells; assay type: in vivo, mouse; conditions: 20 mg/kg orally once daily, 14 days
Method: as §1, §2, §3, §4

H1975-EGFRinsSVD cells [3] = test: Antitumor effect, nude mice subcutaneously transplanted with H1975-EGFRinsSVD cells; assay type: in vivo, mouse; conditions: 20 mg/kg orally once daily, 14 days
Method: as §1, §2, §3, §4

A431 cells = test: Cell growth inhibitory effect on wild-type EGFR-expressing human cell line (CellTiter-Glo); assay type: cell-based; conditions: A-431, 72 h, read-out: GI50 A431
Method: (§6) To evaluate the inhibitory activity of compounds against wild-type EGFR and mutant EGFR, the following cells were used: NCI-H1975 cells, which are human pulmonary adenocarcinoma cell lines expressing EGFR with mutation D770_N771insSVD by gene modification (which hereinafter also referred to as “H1975-EGFRinsSVD”); and A431 cells, which are human epithelial cancer cell lines expressing wild-type EGFR. H1975-EGFRinsSVD cells were prepared as follows. […] XTN (trademark) TALENs Site-Specific Nucleases (Transposagen) were introduced into the cells by electroporation using the Amaxa (trademark) Cell Line Nucleofector (trademark) Kit R, and endogenous-EGFR (T790M/L858R)-knockout cells were selected by sequencing.
(§7) To evaluate the cell growth inhibitory effect, individual types of cells were suspended in a medium recommended by ATCC. The cell suspensions were seeded in each well of respective 96-well flat-bottom plates such that the cell count per well was 3,000, and incubated in a 5% CO2-containing incubator at 37° C. for 1 day. […] The cell count at the time incubation started (day 0) and the cell count after incubation (day 3) were measured using a CellTiter-Glo (trademark) Luminescent Cell Viability Assay (Promega Corporation) in accordance with the manufacturer's recommended protocol.
(§8) 1) If T on day 3≥C on day 0: Growth Rate (%)=(T on day 3−C on day 0)/(C on day 3−C on day 0)×100 T: the luminescence intensity of a well to which a test compound was added. C: the luminescence intensity of a well to which the test compound was not added. Day 0: the day on which a test compound was added. Day 3: the day on which evaluation was performed. 2) If T on day 3<C on day 0: Growth Rate (%)=(T on day 3−C on day 0)/(C on day 0)×100 T: the luminescence intensity of a well to which a test compound was added. C: the luminescence intensity of a well to which the test compound was not added. Day 0: the day on which a test compound was added. Day 3: the day on which evaluation was performed.

H1975-EGFRinsSVD cells [4] = test: Cell growth inhibitory effect on mutant EGFR-expressing human cell line (CellTiter-Glo); assay type: cell-based; conditions: Homo sapiens, NCI-H1975, 72 h, read-out: GI50 H1975 EGFRinsSVD
Method: as §6, §7, §8
Additionally, the ratio of GI50between wild-type EGFR and EGFR exon 20 insertion mutation was determined using the following formula.
GI50 (A431): GI50 for wild-type EGFR
GI50 (H1975 EGFRinsSVD): GI50 for EGFR exon 20 insertion mutation

Structure (SMILES): CN(C)C/C=C/C(=O)Nc1cc2c(Nc3ccc(F)c(Cl)c3)ncnc2cc1O[C@H]1CCOC1 [Afatinib, afatinib, reference compound]
T/C (%) on the final evaluation day (NIH3T3-EGFRinsSVD cells): 39% | time at which the maximum blood concentration is achieved [1]: three hours | I.L.S. (%) (increase in lifespan) [2]: 23% | MST (median survival time) [2]: 54 | T/C (%) on the final evaluation day (NIH3T3-EGFRinsNPH cells): 59% | T/C (%) on the final evaluation day (NIH3T3-EGFRinsASV cells): 46% | T/C (%) on the final evaluation day (H1975-EGFRinsSVD cells [3]): 79%

GI50 (A431 cells; A431, wild-type EGFR, 3 days): 0.543 µM | GI50 (H1975-EGFRinsSVD cells [4]; H1975-EGFRinsSVD, D770_N771insSVD, 3 days): 0.364 µM
Structure (SMILES): C=CC(=O)N[C@H]1CCc2c(-c3cnc4ccccc4c3)c3c(N)ncnc3n2C1 [Comparative Compound, (S)—N-(4-amino-5-(quinolin-3-yl)-6,7,8,9-tetrahydropyrimido[5,4-b]indolizin-8-yl)acrylamide, reference compound]

Structure (SMILES): C=CC(=O)Nc1cc(Nc2nccc(-c3cn(C)c4ccccc34)n2)c(OC)cc1N(C)CCN(C)C [Osimertinib, osimertinib, reference compound]
GI50 (A431 cells): […] | GI50 (H1975-EGFRinsSVD cells [4]): 0.194 µM
